Results on one compound are retold here after patent US10392398B2, “Inhibitors of Late SV40 Factor (LSF) as cancer chemotherapeutics” (TRUSTEES OF BOSTON UNIVERSITY, priority 2010, dated 2019).

A short description of data set [1]: Kinetic solubility, turbidity based assay. It is filed as physicochemical. Particulars: PBS buffer, 37 °C, pH 7.2, aqueous buffer, kinetic from dmso stock, 1×PBS pH 7.2, 1% DMSO, read-out: kinetic solubility, concentration at which precipitates first showed. On the procedure:
Kinetic solubility was measured via a turbidity based assay method (Kerns, E. et al. Automation in Pharmaceutical Profiling. Journal of Laboratory Automation (2005) 10, 114-123). 198 μL of 1×PBS (137 mM NaCl, 2.7 mM KCl, 10 mM Na2HPO4, 2 mM KH2PO4, pH 7.2) was added to the wells of a 96-well plate. FQI-34 (either dried or air-exposed (9% water as determined by NMR)) was dissolved in DMSO for 30 mM final concentration immediately before testing. The 30 mM stock was further diluted in DMSO appropriately for the desired final concentration to be tested in the solubility assay. 2 μL of the DMSO solutions were added to the 96-well plate such that DMSO was kept to 1%. The plate was sealed and gently shaken, and allowed to incubate at 37° C. for 2 hours, after which the absorbance at 620 nm was taken. The concentration at which the absorbance was greater than or equal to 0.01 absorbance units was taken as the precipitation point.

Data set [2] has as its target T1, GRHL1 (Homo sapiens, UniProt Q9NZI5).
T1 construct: endogenous in cells; host or cells: QGY-7703 cell lysate
T1 sequence (Q9NZI5 1-618): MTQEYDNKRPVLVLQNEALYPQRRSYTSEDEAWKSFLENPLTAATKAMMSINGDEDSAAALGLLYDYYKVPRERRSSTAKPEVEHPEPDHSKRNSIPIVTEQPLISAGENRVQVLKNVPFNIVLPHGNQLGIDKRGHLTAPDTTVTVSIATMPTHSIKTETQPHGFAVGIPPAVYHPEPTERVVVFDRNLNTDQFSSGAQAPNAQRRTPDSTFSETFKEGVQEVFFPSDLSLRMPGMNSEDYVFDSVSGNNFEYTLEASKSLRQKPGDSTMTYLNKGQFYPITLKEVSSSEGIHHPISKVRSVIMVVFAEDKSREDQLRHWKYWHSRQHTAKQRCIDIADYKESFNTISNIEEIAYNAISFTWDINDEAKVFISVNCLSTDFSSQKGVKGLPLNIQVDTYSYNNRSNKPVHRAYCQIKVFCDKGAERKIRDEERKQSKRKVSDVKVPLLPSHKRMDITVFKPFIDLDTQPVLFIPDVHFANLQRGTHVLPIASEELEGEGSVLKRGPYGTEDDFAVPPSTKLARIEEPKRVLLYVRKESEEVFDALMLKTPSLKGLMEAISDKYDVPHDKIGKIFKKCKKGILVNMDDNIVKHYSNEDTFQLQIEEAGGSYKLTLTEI
The experiment in a line: Cellular Thermal Shift Assay (CETSA), GRHL1. It is filed as binding. The settings on record: QGY-7703 lysate, 500 μM. On the procedure:
Drug-target engagement was assessed using CETSA as described by Molina et al. (Monitoring Drug-Target Engagement in Cells and Tissues Using Cellular Thermal Shift Assay. Science (2013) 341, 84-87). QGY-7703 cells were cultured at 37° C. in 5% CO2 in DMEM (Dulbecco's modification of Eagle's Medium; Corning) supplemented with 10% Fetal Bovine Serum (FBS; Invitrogen). Cells were seeded into 10 cm plates and allowed to reach 60-80% confluency. After trypsinization (0.05% Trypsin-EDTA, Invitrogen), cell pellet was washed twice with ice-cold 1×PBS (137 mM NaCl, 2.7 mM KCl, 10 mM Na2HPO4, 2 mM KH2PO4, pH 7.2). Cell pellet was lysed by addition of 200 μL freshly prepared ice-cold RIPA buffer (10 mM Tris-Cl pH 8.0, 1 mM EDTA, 0.5 mM EGTA, 1% Triton X-100, 0.1% sodium deoxycholate, 0.1% SDS, 140 mM NaCl) supplemented with 1 mM Pefabloc (Sigma-Aldrich), and flash frozen in liquid nitrogen and thawed for a total of three cycles. Cell lysate was centrifuged at 20,000×g for 20 minutes to clarify. Supernatant was either treated immediately or saved at −80° C. for future use. […]
Immunoblots were quantified using Image J and graphed using GraphPad PRISM. Area-under-the-curve (AUC) for the quantified western blots were calculated with GraphPad PRISM and non-parametric t-test was calculated to determine statistical significance between the curves. […]

≈ marks a conversion by molar mass, not a printed value. Where two headings read alike, the source gives them in different places.

For `CCOc1cc(N(C)C)ccc1C1CC(=O)Nc2cc3c(cc21)OCO3` (stereo not drawn) [FQI-34, 8-(4-(dimethylamino)-2-ethoxyphenyl)-7,8-dihydro-[1,3]dioxolo[4,5-g]quinolin-6(5H)-one], the solubility kinetic at 2 h in data set [1] (air-exposed (9% water)) came to 100 µM (≈ 35.4 µg/mL); in data set [1] (dry), 150 µM (≈ 53.2 µg/mL). In data set [2], the “binding to GRHL1 by CETSA” value is recorded as “does not bind”.
